Data taken from patent US20230321196A1 (priority 2020, published 2023).
Like-named read-outs stand apart in the source and are kept apart here. Bridges are numbered along the chain shown (N, C = ends). Where no end group is shown, it is not given here.

What was measured:
[1] = tested on: influenzavirus-infected mice; assay type: in vivo
[2] = tested on: influenzavirus-infected mice; assay type: in vivo; remark: listed apart in the source
[3] = tested on: influenzavirus-infected mice; assay type: in vivo; conditions: for Score of gross lesion examination of lung: day 5 after inoculation
[4] = tested on: influenzavirus PR8(A/PR/8/34 (H1N1)); assay: Test II: virus concentration in lung; assay type: in vivo, mice; conditions: for Virus concentration in lung: right lung, day 5 after inoculation, mean ± SE
[5] = tested on: influenzavirus-infected mice; assay type: in vivo; conditions: left lung, mean ± SE
[6] = tested on: influenzavirus-infected mice; assay type: in vivo; remark: listed apart in the source
[7] = tested on: influenzavirus-infected mice; assay type: in vivo; remark: listed apart in the source
[8] = tested on: influenzavirus-infected mice; assay type: in vivo; conditions: for Score of gross lesion examination of lung: day 5 after inoculation; remark: listed apart in the source
[9] = tested on: influenzavirus-infected mice; assay type: in vivo; conditions: mean ± SE
[10] = tested on: influenzavirus PR8(A/PR/8/34 (H1N1)); assay: Test III: virus concentration in lung; assay type: in vivo, mice; conditions: administered groups vs control group
COVID-19 patients = conditions: 15 ng/kg body weight/min i.v. continuous 72 hours, then 8 hours per day up to day 10; trial still blinded
[11] = 10 nmol/kg i.v., day 0 after inoculation
[12] = 10 nmol/kg i.v., day 1 after inoculation
[13] = 10 nmol/kg i.v., day 2 after inoculation
[14] = 10 nmol/kg i.v., day 3 after inoculation
[15] = 10 nmol/kg i.v., day 4 after inoculation
[16] = 10 nmol/kg i.v., day 5 after inoculation
[17] = 10 nmol/kg tail vein once per day, 1 day before inoculation, mean ± SE
[18] = 100 nmol/kg i.v., day 0 after inoculation
[19] = 100 nmol/kg i.v., day 1 after inoculation
[20] = 100 nmol/kg i.v., day 2 after inoculation
[21] = 100 nmol/kg i.v., day 3 after inoculation
[22] = 100 nmol/kg i.v., day 4 after inoculation
[23] = 100 nmol/kg i.v., day 5 after inoculation
[24] = 100 nmol/kg tail vein once per day, 1 day before inoculation, mean ± SE
[25] = Test II, administered groups vs control group
[26] = 25 nmol/kg i.v., day 1 after inoculation
[27] = 25 nmol/kg i.v., day 2 after inoculation
[28] = 25 nmol/kg i.v., day 3 after inoculation
[29] = 25 nmol/kg i.v., day 4 after inoculation
[30] = 25 nmol/kg i.v., day 5 after inoculation
[31] = 25 nmol/kg tail vein once per day, day 0 after inoculation, mean ± SE
[32] = 250 nmol/kg i.v., day 1 after inoculation
[33] = 250 nmol/kg i.v., day 2 after inoculation
[34] = 250 nmol/kg i.v., day 3 after inoculation
[35] = 250 nmol/kg i.v., day 4 after inoculation
[36] = 250 nmol/kg i.v., day 5 after inoculation
[37] = 250 nmol/kg tail vein once per day, day 0 after inoculation, mean ± SE

Compound: [Ala-44]hAM(13-52): adrenomedullin analog: peptide of SEQ ID NO: 17, amidated at the C-terminus, disulfide bond formed by two cysteine residues (SFGCRFGTCTVQKLAHQIYQFTDKDKDNVAPASKISPQGY-NH2; disulfide 4-9 (inferred))
- General condition score [1, 11]: 0.0 ± 0.0
- General condition score [1, 12]: 0.0 ± 0.0
- General condition score [1, 13]: 0.2 ± 0.0
- General condition score [1, 14]: 0.5 ± 0.0
- General condition score [1, 15]: 0.8 ± 0.0
- General condition score [1, 16]: 1.0 ± 0.0
- General condition score [1, 17]: 0.0 ± 0.0
- General condition score [1, 18]: 0.0 ± 0.0
- General condition score [1, 19]: 0.0 ± 0.0
- General condition score [1, 20]: 0.1 ± 0.0
- General condition score [1, 21]: 0.5 ± 0.0
- General condition score [1, 22]: 0.8 ± 0.0
- General condition score [1, 23]: 1.0 ± 0.0
- General condition score [1, 24]: 0.0 ± 0.0
- Body weight [2, 11]: 15.7 ± 0.3
- Body weight [2, 12]: 16.1 ± 0.3
- Body weight [2, 13]: 15.1 ± 0.3
- Body weight [2, 14]: 14.0 ± 0.3
- Body weight [2, 15]: 13.2 ± 0.2
- Body weight [2, 16]: 12.8 ± 0.2
- Body weight [2, 17]: 15.8 ± 0.2
- Body weight [2, 18]: 15.8 ± 0.2
- Body weight [2, 19]: 16.2 ± 0.3
- Body weight [2, 20]: 15.5 ± 0.2
- Body weight [2, 21]: 14.6 ± 0.3
- Body weight [2, 22]: 13.6 ± 0.2
- Body weight [2, 23]: 12.9 ± 0.1
- Body weight [2, 24]: 15.8 ± 0.2
- Score of gross lesion examination of lung ([3]; Left lung, 10 nmol/kg i.v. once per day, mean ± SE): 2.8 ± 0.2
- Score of gross lesion examination of lung ([3]; Left lung, 100 nmol/kg i.v. once per day): 2.6 ± 0.2
- Score of gross lesion examination of lung ([3]; Right lung, 10 nmol/kg i.v. once per day): 2.9 ± 0.1
- Score of gross lesion examination of lung ([3]; Right lung, 100 nmol/kg i.v. once per day): 2.5 ± 0.2
- gross lesion formation in the lung [3, 25]: significantly suppressed
- Virus concentration in lung ([4]; 10 nmol/kg i.v. once per day): 53.0 ± 3.0 ×10^4 PFU/right lung
- Virus concentration in lung ([4]; 100 nmol/kg i.v. once per day): 43.3 ± 4.6 ×10^4 PFU/right lung
- virus concentration in the lung [4, 25]: significantly decreased
- Score of histopathological examination of lung: Pneumonia score ([5]; 10 nmol/kg i.v. once per day): 8.9 ± 0.4
- Score of histopathological examination of lung: Pneumonia score ([5]; 100 nmol/kg i.v. once per day): 9.0 ± 0.5

Compound: 60K PEG-AM: adrenomedullin derivative having a PEG group with a weight-average molecular weight of 60 kDa, prepared according to WO 2017/047788
- General condition score [6, 26]: 0.0 ± 0.0
- General condition score [6, 27]: 0.1 ± 0.0
- General condition score [6, 28]: 0.5 ± 0.0
- General condition score [6, 29]: 0.7 ± 0.1
- General condition score [6, 30]: 0.9 ± 0.1
- General condition score [6, 31]: 0.0 ± 0.0
- General condition score [6, 32]: 0.0 ± 0.0
- General condition score [6, 33]: 0.1 ± 0.0
- General condition score [6, 34]: 0.5 ± 0.0
- General condition score [6, 35]: 0.8 ± 0.0
- General condition score [6, 36]: 1.0 ± 0.0
- General condition score [6, 37]: 0.0 ± 0.0
- Body weight [7, 26]: 16.4 ± 0.4
- Body weight [7, 27]: 16.3 ± 0.4
- Body weight [7, 28]: 14.5 ± 0.4
- Body weight [7, 29]: 13.9 ± 0.5
- Body weight [7, 30]: 13.9 ± 0.5
- Body weight [7, 31]: 16.4 ± 0.4
- Body weight [7, 32]: 16.1 ± 0.4
- Body weight [7, 33]: 15.8 ± 0.5
- Body weight [7, 34]: 14.3 ± 0.4
- Body weight [7, 35]: 13.7 ± 0.3
- Body weight [7, 36]: 13.3 ± 0.3
- Body weight [7, 37]: 16.4 ± 0.3
- Score of gross lesion examination of lung ([8]; Left lung, 25 nmol/kg i.v. once per day, mean ± SE): 2.0 ± 0.5
- Score of gross lesion examination of lung ([8]; Left lung, 250 nmol/kg i.v. once per day): 2.4 ± 0.2
- Score of gross lesion examination of lung ([8]; Right lung, 25 nmol/kg i.v. once per day): 2.0 ± 0.5
- Score of gross lesion examination of lung ([8]; Right lung, 250 nmol/kg i.v. once per day): 1.9 ± 0.3
- gross lesion formation in the lung ([8]; Test III, administered groups vs control group): significantly suppressed
- Score of histopathological examination of lung: Pneumonia score ([9]; Table 14, 25 nmol/kg i.v. once per day): 8.3 ± 1.5
- Score of histopathological examination of lung: Pneumonia score ([9]; Table 14, 250 nmol/kg i.v. once per day): 9.4 ± 0.6
- Score of histopathological examination of lung: Pneumonia score ([9]; Table 15, 25 nmol/kg i.v. once per day): 8.3 ± 1.5
- Score of histopathological examination of lung: Pneumonia score ([9]; Table 15, 250 nmol/kg i.v. once per day): 9.4 ± 0.6
- virus concentration in the lung [10]: significantly decreased

Compound: CC[C@H](C)[C@H](NC(=O)[C@H](CCC(N)=O)NC(=O)[C@H](Cc1c[nH]cn1)NC(=O)[C@H](C)NC(=O)[C@H](CC(C)C)NC(=O)[C@H](CCCCN)NC(=O)[C@H](CCC(N)=O)NC(=O)[C@@H](NC(=O)[C@@H](NC(=O)[C@@H]1CSSC[C@H](NC(=O)CNC(=O)[C@H](Cc2ccccc2)NC(=O)[C@H](CO)NC(=O)[C@H](CCCNC(=N)N)NC(=O)[C@H](CC(C)C)NC(=O)CNC(=O)[C@H](CCC(N)=O)NC(=O)[C@H](Cc2ccccc2)NC(=O)[C@H](CC(N)=O)NC(=O)[C@H](CC(N)=O)NC(=O)[C@H](CCSC)NC(=O)[C@H](CO)NC(=O)[C@H](CCC(N)=O)NC(=O)[C@H](CCCNC(=N)N)NC(=O)[C@@H](N)Cc2ccc(O)cc2)C(=O)N[C@@H](CCCNC(=N)N)C(=O)N[C@@H](Cc2ccccc2)C(=O)NCC(=O)N[C@@H]([C@@H](C)O)C(=O)N1)[C@@H](C)O)C(C)C)C(=O)N[C@@H](Cc1ccc(O)cc1)C(=O)N[C@@H](CCC(N)=O)C(=O)N[C@@H](Cc1ccccc1)C(=O)N[C@H](C(=O)N[C@@H](CC(=O)O)C(=O)N[C@@H](CCCCN)C(=O)N[C@@H](CC(=O)O)C(=O)N[C@@H](CCCCN)C(=O)N[C@@H](CC(=O)O)C(=O)N[C@@H](CC(N)=O)C(=O)N[C@H](C(=O)N[C@@H](C)C(=O)N1CCC[C@H]1C(=O)N[C@@H](CCCNC(=N)N)C(=O)N[C@@H](CO)C(=O)N[C@@H](CCCCN)C(=O)N[C@H](C(=O)N[C@@H](CO)C(=O)N1CCC[C@H]1C(=O)N[C@@H](CCC(N)=O)C(=O)NCC(=O)N[C@@H](Cc1ccc(O)cc1)C(N)=O)[C@@H](C)CC)C(C)C)[C@@H](C)O [adrenomedullin]
- adverse events (COVID-19 patients): no adverse event directly caused by AM has been reported
